Data reported in US9499823B2, “Constructs expressing chimeric receptors and use thereof for the controlled activation of defence response to pathogens in plants” (priority 2009, dated 2016).
Entries after “also recorded” stand apart in the source; their conditions may differ.

Tests used:
[1] = tested on: ethylene biosynthesis in tobacco leaves; assay: Induction of ethylene biosynthesis in agroinfiltrated tobacco leaf explants; type: cell-based, Nicotiana tabacum; conditions: for ethylene release induced by flg22: flg22, 2 h, compared with EFR-expressing explants as negative controls
Method: F) Induction of ethylene biosynthesis in agroinfiltrated tobacco leaves expressing the fluorescent EFR, FLS2, TMC, eJMC and eJMC^Y859A. NC: negative control, represented by agroinfiltrated leaf tissues expressing fluorescent EFR or FLS2 and elicited with flg22 or elfl8, respectively. Results are averages±standard error (n=3).
Excised infiltrated leaf sectors were stimulated for 2 h with water or the elicitor ([…] and 100 μg/ml for OGs). Values are means±s.e.m. (N=3).
E) Induction of ethylene biosynthesis in agroinfiltrated tobacco leaves expressing EFR, WAK1, WEG and EWAK. Each construct was stimulated for 2 h with elfl8 (10 μM) or OGs (100 μg/mL). NC: negative control, represented by agroinfiltrated leaf tissue expressing EFR or FLS2 when OGs or elfl8, respectively, were used for elicitation. Error bars indicate the standard error of three independent replicates.
(A) Induction of ethylene biosynthesis in agroinfiltrated tobacco explants expressing EFR, WAK1, WEG and EWAK. […] Agroinfiltrated leaf tissues expressing EFR or WEG and elicited with OGs or elfl8 respectively, represented our negative control. Values are means±s.e.m. (N=3). (B) Elicitor-induced gene expression in untransformed Col-0 and Col-0 efr plants, and in transgenic Arabidopsis Col-0 efr plants stably expressing WEG. Accumulation of At3g22270 and At4g37640 transcripts was analysed by semi-quantitative PCR, using the UBQ5 gene for normalization. Adult leaves were syringe-infiltrated with water, OGs (25 μg/ml) or elfl8 (10 μM) for 3 h. The experiment was repeated three times with similar results. The same experiment was performed in a second independent transgenic line expressing WEG with similar results.
Approximately 150 mg of tobacco agroinfiltrated leaf were cut in small slices and extensively washed with sterile distilled water. The explants were placed in sealed 10 mL flasks containing 2 mL of sterile water alone or supplemented with 100 mg L^−1 OGs, or 1 μM flg22 or 10 μM elfl8. 450 μl headspace samples were withdrawn from the vial after 2 h treatment and analyzed by gas chromatography-mass spectrometry using an Agilent 6850A gas chromatograph coupled to a 5973N quadrupole mass selective detector (Agilent Technologies, Palo Alto, Calif., USA). Chromatographic separations were carried out an HP Plot-Q fused-silica capillary column (30 m×0.32 mm i.d.) coated with polystyrene-divinylbenzene (film thickness 0.20 μm) as stationary phase. Injection mode: splitless at a temperature of 220° C. The initial temperature of the oven was held at 50° C. for 8 min then ramped to 220° C. at a rate of 15° C./min and held for 5 min. Helium was used as carrier gas at a constant flow of 1.0 ml/min. Mass spectra were collected both in full scan and in SIM mode monitoring the ions m/z m/z 26, m/z 27 and m/z 28 (ionization energy 70 eV; ion source 280° C.; ion source vacuum 10^−5 Torr).

[2] = tested on: Pseudomonas syringae DC3000; assay: Pseudomonas DC3000 infection of Arabidopsis Ws-0 plants by spraying; type: in vivo; conditions: transgenic Ws-0 plants vs Ws-0 wild type, 4 days post infection
From the text: C) Pseudomonas DC3000 infections. (Left Panel) Symptoms disease of wild type and transformed plants after 4 days post infection. (Right panel) Growth of Pseudomonas syringae DC3000 after 4 day post infection. ***, p<0.005.
The authors therefore infected A. thaliana plants by spraying Pst DC3000 bacteria onto leaf surfaces. […] Higher resistance of eJMC plants, compared to Ws-0 wild-type plants, was found in all of three independent experiments.

[3] = tested on: Agrobacterium tumefaciens GV3101; assay: Growth of Agrobacterium in N. tabacum tissues transiently expressing receptor proteins; type: in vivo; conditions: 24 h after inoculation, tobacco tissues expressing the receptor
Method: F) Growth of Agrobacterium in N. tabacum tissues transiently expressing receptor proteins. Tobacco leaves were infiltrated with Agrobacterium expressing the indicated receptors and the number of Agrobacterium colony-forming units (c.f.u.) in the tissues was analyzed soon after infiltration (white bars) and 24 h (gray bars). EFR and eJMC were used as positive and negative controls, respectively. For each receptor, three samples were analyzed in five independent experiments. *, p<0.005.
(A) Growth of A. tumefaciens in N. tabacum tissues transiently expressing receptor proteins. Tobacco leaves were infiltrated with Agrobacterium carrying the indicated receptor constructs and the number of Agrobacterium colony-forming units (c.f.u.) in the tissues was analyzed immediately after infiltration (white bars) and after 24 h (gray bars). EFR and eJMC were used as positive and negative controls, respectively. For each receptor, three samples were analyzed in five independent experiments. Asterisks indicate statistically significant differences against control (Col-0 for WAK1 plants and Col-0 efr for WEG and EWAK plants). (B) Lesion development in Arabidopsis wild type (Col-0) and mutant Col-0 efr plants and in transgenic plants expressing WAK1, WEG and EWAK plants inoculated with B. cinerea at 48 h post-inoculation. Values are means±s.e.m. of at least 16 lesions. The same experiment was performed in a second independent transgenic line expressing WAK1 with similar results. Asterisks indicate statistically significant differences against control (Col-0 for WAK1 plants and Col-0 efr for WEG and EWAK plants).
Agrobacterium tumefaciens GV3101 strain infections was performed as described in Katagiri et al., (2002) and using a concentration of Agrobacterium corresponding at an OD600 of 1.0 in 10 mM MgCl2 and 600 μM acetosyringone. After 24 h of infiltration, serial dilution of Agrobacterium colonies were deposited on LB agar supplemented with gentamycin and rifampicin and grown for 2-3 days at 28° C. in the dark. At least 5 independent plants and 3 different leaves by plant, were used per experiment. Pectobacterium carotovorum subsp. carotovorum infections Pectobacterium carotovorum subsp. carotovorum (formely Erwinia carotovora; Gardan et al., 2003) (strain DMSZ 30169) was obtained from DSMZ GmbH (Germany). A liquid colture using 10 ml LB medium was prepared. After 16 h of growth at 28° C. on rotary shaker at 250 rpm, bacterial cells were harvested by centrifugation and the pellet was resuspended in 50 mM potassium phosphate buffer pH 7.0 corresponding to 5×10^7 CFU/ml.

Molecule	ethylene release induced by flg22 [1]	development of disease symptoms / susceptibility to Pst DC3000 [2]	numbers of bacteria in leaves [2]	ethylene accumulation upon stimulation with elfl8 ([1]; elfl8 10 μM, 2 h)	effect on the number of living Agrobacterium cells [3]	ethylene accumulation induced by OGs relative to negative control ([1]; OGs 100 μg/mL, 2 h, negative control OG-stimulated EFR-expressing tissues)	release of ethylene induced by elfl8 relative to negative control ([1]; elfl8 10 μM, 2 h, negative control FLS2-expressing explants)	decrease in the number of living Agrobacterium cells ([3]; p<0.005)
FLS2 [reference compound]	only a weak response	Ws-0 plants showed a faster and more severe development of disease symptoms	higher numbers of bacteria in Ws-0					
eJMC: chimera (Arg806FLS2-Val650EFR): LRR and eJM domains of FLS2 fused upstream of TM, iJM and kinase domains of EFR, GFP-fused	significantly higher	Ws-0 plants showed a faster and more severe development of disease symptoms; also recorded: less susceptible	higher numbers of bacteria in Ws-0	did not	no significant effect; also recorded: No significant change			
WEG: chimeric receptor: WAK1 ectodomain fused to the TM-iJM-kinase portion of EFR, GFP-fused (protein, left off: large carriers) QHQPGENCQNKCGNITIEYPFGISSGCYYPGNESFSITCKEDRPHVLSDIEVANFNHSGQLQVLLNRSSTCYDEQGKKTEEDSSFTLENLSLSANNKLTAVGCNALSLLDTFGMQNYSTACLSLCDSPPEADGECNGRGCCRVDVSAPLDSYTFETTSGRIKHMTSFHDFSPCTYAFLVEDDKFNFSSTEDLLNLRNVMRFPVLLDWSVGNQTCEQVGSTSICGGNSTCLDSTPRNGYICRCNEGFDGNPYLSAGCQDVNECTTSSTIHRHNCSDPKTCRNKVGGFYCKCQSGYRLDTTTMSCKRKEVVSGICIGIASLLLIIIVASLCWFMKRKKKNNASDGNPSDSTTLGMFHEKVSYEELHSATSRFSSTNLIGSGNFGNVFKGLLGPENKLVAVKVLNLLKHGATKSFMAECETFKGIRHRNLVKLITVCSSLDSEGNDFRALVYEFMPKGSLDMWLQLEDLERVNDHSRSLTPAEKLNIAIDVASALEYLHVHCHDPVAHCDIKPSNILLDDDLTAHVSDFGLAQLLYKYDRESFLNQFSSAGVRGTIGYAAPEYGMGGQPSIQGDVYSFGILLLEMFSGKKPTDESFAGDYNLHSYTKSILSGCTSSGGSNAIDEGLRLVLQVGIKCSEEYPRDRMRTDEAVRELISIRSKFFSSKTTITESPRDAPQSSPQEWMLNTDMHTM					no significant effect; also recorded: No significant change	2.4 times		
EFR: Arabidopsis LRR receptor kinase Elongation Factor Tu Receptor (AT5G20480); GFP-fused control (protein) RFSNETDMQALLEFKSQVSENNKREVLASWNHSSPFCNWIGVTCGRRRERVISLNLGGFKLTGVISPSIGNLSFLRLLNLADNSFGSTIPQKVGRLFRLQYLNMSYNLLEGRIPSSLSNCSRLSTVDLSSNHLGHGVPSELGSLSKLAILDLSKNNLTGNFPASLGNLTSLQKLDFAYNQMRGEIPDEVARLTQMVFFQIALNSFSGGFPPALYNISSLESLSLADNSFSGNLRADFGYLLPNLRRLLLGTNQFTGAIPKTLANISSLERFDISSNYLSGSIPLSFGKLRNLWWLGIRNNSLGNNSSSGLEFIGAVANCTQLEYLDVGYNRLGGELPASIANLSTTLTSLFLGQNLISGTIPHDIGNLVSLQELSLETNMLSGELPVSFGKLLNLQVVDLYSNAISGEIPSYFGNMTRLQKLHLNSNSFHGRIPQSLGRCRYLLDLWMDTNRLNGTIPQEILQIPSLAYIDLSNNFLTGHFPEEVGKLELLVGLGASYNKLSGKMPQAIGGCLSMEFLFMQGNSFDGAIPDISRLVSLKNVDFSNNNLSGRIPRYLASLPSLRNLNLSMNKFEGRVPTTGVFRNATAVSVFGNTNICGGVREMQLKPCIVQASPRKRKPLSVRKKVVSGICIGIASLLLIIIVASLCWFMKRKKKNNASDGNPSDSTTLGMFHEKVSYEELHSATSRFSSTNLIGSGNFGNVFKGLLGPENKLVAVKVLNLLKHGATKSFMAECETFKGIRHRNLVKLITVCSSLDSEGNDFRALVYEFMPKGSLDMWLQLEDLERVNDHSRSLTPAEKLNIAIDVASALEYLHVHCHDPVAHCDIKPSNILLDDDLTAHVSDFGLAQLLYKYDRESFLNQFSSAGVRGTIGYAAPEYGMGGQPSIQGDVYSFGILLLEMFSGKKPTDESFAGDYNLHSYTKSILSGCTSSGGSNAIDEGLRLVLQVGIKCSEEYPRDRMRTDEAVRELISIRSKFFSSKTTITESPRDAPQSSPQEWMLNTDMHTM				accumulated ethylene			3.8 times	30%
